Laboratory results reported in ChEMBL document CHEMBL3044941, “Synthesis and Structure-Activity Relationships of Dinotefuran Derivatives: Modification in the Tetrahydro-3-furylmethyl Part” (2004).

Experiments:
Laodelphax striatellus = test: Insecticidal activity against 1 to 3 day-old adult Laodelphax striatella (small brown planthopper) infested compound-treated rice seedlings assessed as mortality measured after 3 days; format: functional
Nephotettix cincticeps = test: Insecticidal activity against 1 to 3 day-old adult Nephotettix cincticeps (green rice leafhopper) infested in compound-treated rice seedlings assessed as mortality measured after 3 days; format: functional

SMILES | LC70 (Laodelphax striatellus) [ppm] | LC70 (Nephotettix cincticeps) [ppm]
CN/C(=C\[N+](=O)[O-])NCC1COCC1C (mixture of isomers) | 1 | 1
CCC1COCC1CN1CCCN/C1=C\[N+](=O)[O-] (mixture of isomers) | 100 | >1000
CC1CC(CN2CCCN/C2=N\[N+](=O)[O-])CO1 (mixture of isomers) | 1 | 0.1
CC1(C)CC(CN2CCCN/C2=C\[N+](=O)[O-])CO1 (configuration not stated) | 1 | 1
CN/C(=N\[N+](=O)[O-])NCC1CCOC1C (configuration not stated) | >1000 | >1000
CN/C(=C\[N+](=O)[O-])NCC1COC(C)C1 (mixture of isomers) | 10 | 1
CN/C(=N/CC1CCOC1)N[N+](=O)[O-] (configuration not stated) [DINOTEFURAN] | 0.1 | 0.1
CN/C(=N\[N+](=O)[O-])NCC1(C)COCC1C (mixture of isomers) | >1000 | >1000
CN/C(=N\[N+](=O)[O-])NCC1CCOC1OC (mixture of isomers) | >1000 | >1000
CCC1COCC1CN/C(=N/[N+](=O)[O-])NC (mixture of isomers) | >1000 | 100
CN/C(=N\[N+](=O)[O-])NCC1COC(c2ccccc2)C1 (mixture of isomers) | >1000 | >1000
CN/C(=C\[N+](=O)[O-])NCC1CCOC1 (configuration not stated) | 0.1 | 0.1
CN/C(=C\[N+](=O)[O-])NCC1CCOC1OC (mixture of isomers) | >1000 | >1000
O=[N+]([O-])/N=C1\NCCCN1CC1CCOC1 (configuration not stated) | 1 | 0.1
CN/C(=N\[N+](=O)[O-])NCC1COC(C)(C)C1 (configuration not stated) | 100 | 1
CN/C(=N\[N+](=O)[O-])NCC1(C)CCOC1 (configuration not stated) | >1000 | >1000
CN/C(=N\[N+](=O)[O-])NCC1COCC1C (mixture of isomers) | 10 | 1
CN/C(=N\[N+](=O)[O-])NCC1COC(C)C1 (mixture of isomers) | 10 | 1
CN/C(=C\[N+](=O)[O-])NCC1CCOC1C (mixture of isomers) | >1000 | >1000
CC1COCC1CN1CCCN/C1=N\[N+](=O)[O-] (mixture of isomers) | 10 | 0.1
CC1COCC1CN1CCCN/C1=C\[N+](=O)[O-] (mixture of isomers) | 1 | 0.1
CC1(C)CC(CN2CCCN/C2=N\[N+](=O)[O-])CO1 (configuration not stated) | 10 | 1
CCC1COCC1CN/C(=C/[N+](=O)[O-])NC (mixture of isomers) | >1000 | 100
O=[N+]([O-])/C=C1\NCCCN1CC1CCOC1 (configuration not stated) | 1 | 0.1
CC1CC(CN2CCCN/C2=C\[N+](=O)[O-])CO1 (mixture of isomers) | 1 | 1
CN/C(=C\[N+](=O)[O-])NCC1COC(C)(C)C1 (configuration not stated) | 10 | 1
